The values below are quoted from earlier work in patent US20080057125A1, “STABLE TABLET DOSAGE FORMS OF PROTON PUMP INHIBITORS” (priority 2005, published 2008).

Where two headings read alike, the source gives them in different places.

For data set [1] the following is noted: 25° C.
For data set [2] the following is noted: from commercially marketed dosage forms.

Turning to `Cc1c(OCC(F)(F)F)ccnc1C[S+]([O-])c1nc2ccccc2[nH]1` (stereo not shown) [Lansoprazole, 2-[[[3-methyl-4-(2,2,2-trifluoroethoxy)-2-pyridyl]methyl]sulfinyl]benzimidazole], the “degradation half-life in aqueous solution” value in data set [1] (pH 5.0) is listed as “approximately 0.5 hour”; in data set [1] (pH 7.0) it was “approximately 18 hours”. In data set [2], the percent bioavailability is 80-85%.
Take `COc1ccc2[nH]c([S+]([O-])Cc3ncc(C)c(OC)c3C)nc2c1` (stereo not shown) [omeprazole, 2-[2-(3,5-dimethyl-4-methoxy)-pyridylmethylsulfinyl]-(5-methoxy)-benzimidazole]: the percent bioavailability in data set [2] is on record as 30-40%.
